The text below walks through data of US10544138B2, “Tricyclic kinase inhibitors of MELK and methods of use” (Dana-Farber Cancer Institute, Inc., priority 2015, dated 2020).

In one experiment the test system is U2OS-(H2B-GFP) cells. Kind of experiment: Mitotic slippage, time-lapse imaging of U2OS-(H2B-GFP) cells. In kind it is cell-based, human. Particulars: 5 μM, 4 h exposure. On the procedure:
(§1) Mitotic cells were treated with THZ-4-63-1 at indicated concentrations for 4 h. Cells were collected for immunoblotting. Panel B contains time-lapse images of U2OS-(H2B-GFP) cells treated with THZ-4-63-1 (5 μM). […] Panel C contains blots showing proteasome-mediated degradation of Cyclin B1, Aurora B and MELK in THZ-4-63-1-induced mitotic slippage. Mitotic cells were treated as in Panel A with THZ-4-63-1 (5 μM), or MG132 (10 μM), or both for 4 h. Panel D contains a graph showing quantification of cell proliferation in the indicated breast cancer cell lines, which were treated with vehicle control or THZ-4-63-1 for one week (Top) and also contains bright-field images acquired from control cells or cells treated with THZ-4-63-1 (111 nM) (Bottom). […] Cells were treated with indicated drugs, and harvested in ten days for quantification of cell growth. The bold curve depicts the theoretic prediction of an additive action between paclitaxel and THZ-4-63-1.
Centromeric localization of CPC has been implicated in checkpoint signaling^8. […] We further found an impaired spindle checkpoint in cells with MELK knockdown (FIG. 9C).

The test system of experiment [1] is Cyclin B1, MELK, and Aurora B. The experiment is described as follows: Spindle assembly checkpoint signaling, abundance of mitotic factors by immunoblotting. Type of experiment: cell-based. The following applies: nocodazole- or paclitaxel-arrested cells. As to the method:
as §1
In Panel A, paclitaxel-arrested cells were treated with THZ-4-63-1 at indicated concentrations for 4 h. Cells were collected for immunoblotting. In Panel B, nocodazole- (top) or paclitaxel-arrested mitotic cells were treated with vehicle control or THZ-4-63-1 (5 μM) for increasing time. Cell lysates were collected for immunoblotting. […]

The target of a further experiment is MELK (Homo sapiens, UniProt Q14680). Kind of experiment: Electrophoretic mobility (auto-phosphorylation) of MELK in nocodazole-arrested mitotic cells, immunoblotting. In kind it is cell-based. Particulars: nocodazole-arrested mitotic cells (HeLa, MDA-MB-231), 30 min, increasing concentration. On the procedure: (§2) […] assays were performed with recombinant protein of the indicated mitotic kinase (left) and AMPK family kinases (right) in the presence of THZ-4-63-1. […] Cells were treated with nocodazole (100 ng/ml) for 18 h or not treated (Asyn., asynchronous). Nocodazole-arrested mitotic cells (M) were isolated via shake-off. The attached cells enriched in G2 phase (G2) were harvested. A portion of the mitotic cells were washed off nocodazole and released into G1 phase after 4 hours of incubation (G1). […] In Panel D, mitotic lysates were prepared from the indicated cells, and treated with λ-phosphatase at 30° C. In Panel E, nocodazole-arrested mitotic cells were treated with increasing concentration of THZ-4-63-1 for 30 min. Cell lysates were subjected to immunoblotting.
Sequence of MELK (Q14680 whole entry): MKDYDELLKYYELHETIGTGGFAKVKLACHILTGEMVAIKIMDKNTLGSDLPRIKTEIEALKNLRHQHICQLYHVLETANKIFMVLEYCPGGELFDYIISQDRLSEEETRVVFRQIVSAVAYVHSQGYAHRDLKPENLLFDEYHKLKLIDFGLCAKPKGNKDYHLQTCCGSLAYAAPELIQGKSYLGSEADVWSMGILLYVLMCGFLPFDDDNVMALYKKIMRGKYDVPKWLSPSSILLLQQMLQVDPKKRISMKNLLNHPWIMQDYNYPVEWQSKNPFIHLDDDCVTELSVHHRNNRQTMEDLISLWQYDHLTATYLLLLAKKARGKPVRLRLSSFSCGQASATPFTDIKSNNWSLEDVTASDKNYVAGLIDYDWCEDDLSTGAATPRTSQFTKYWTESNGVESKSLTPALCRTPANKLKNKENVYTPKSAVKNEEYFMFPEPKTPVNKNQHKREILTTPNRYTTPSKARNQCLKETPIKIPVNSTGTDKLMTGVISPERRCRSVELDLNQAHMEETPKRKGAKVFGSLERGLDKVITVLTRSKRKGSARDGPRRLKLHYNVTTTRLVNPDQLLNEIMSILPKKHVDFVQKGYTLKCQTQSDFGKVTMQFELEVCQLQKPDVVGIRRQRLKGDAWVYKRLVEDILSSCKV
Cell lysates were subjected to immunoblotting. […] The fluorescent signals of immunblotting were quantified using Image Studio Lite software (Licor Biosciences, Lincoln, Neb.). The signal of phosphorylated Aurora kinases was normalized to that of loading control (α-tubulin).
We next proceeded to test if THZ-4-63-1 inhibits MELK activity in vivo. With a lack of established kinase substrates of MELK during mitosis, we used the auto-phosphorylation of MELK as a surrogate to indicate the activity of MELK. […] We then harvested nocodazole-arrested mitotic cells, and treated cells with increasing concentrations of THZ-4-63-1.

The target of a further experiment is T1, NUAK1 (Homo sapiens, UniProt O60285).
T1 sequence (O60285 1-661): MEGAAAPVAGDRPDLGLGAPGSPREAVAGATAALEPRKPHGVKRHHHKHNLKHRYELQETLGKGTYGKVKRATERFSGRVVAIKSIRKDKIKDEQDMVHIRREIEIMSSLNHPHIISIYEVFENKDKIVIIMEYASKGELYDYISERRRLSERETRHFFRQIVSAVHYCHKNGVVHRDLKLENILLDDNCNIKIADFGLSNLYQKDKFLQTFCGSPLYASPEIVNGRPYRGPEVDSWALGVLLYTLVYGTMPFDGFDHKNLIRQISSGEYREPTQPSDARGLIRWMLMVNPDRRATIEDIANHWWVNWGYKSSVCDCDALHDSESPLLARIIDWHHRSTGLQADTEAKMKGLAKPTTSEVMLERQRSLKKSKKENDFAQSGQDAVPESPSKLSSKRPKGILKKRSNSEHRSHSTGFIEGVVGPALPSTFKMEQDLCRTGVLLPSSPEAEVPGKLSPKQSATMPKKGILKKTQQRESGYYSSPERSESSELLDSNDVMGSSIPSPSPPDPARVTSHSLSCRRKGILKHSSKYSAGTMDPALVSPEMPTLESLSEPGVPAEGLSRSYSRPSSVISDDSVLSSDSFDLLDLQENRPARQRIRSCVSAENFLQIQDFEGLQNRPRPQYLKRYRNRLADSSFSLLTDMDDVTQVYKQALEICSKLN
The experiment is described as follows: Recombinant AMPK family kinase assay, NUAK1. Particulars: recombinant kinases. Type of experiment: biochemical. As to the method:
as §2
To discover a selective MELK inhibitor, a few molecule scaffolds with the potential of binding to MELK were identified, including 2,4-disubstituted pyrimidines and benzonaphthyridinones. […] To investigate if THZ-4-63-1 confers selective inhibition on MELK, we tested its effect on other mitotic kinases. In assays using recombinant kinases, MELK kinase activity was 20-fold more sensitive to THZ-4-63-1, than that of Aurora A, Aurora B, CDK1, or PLK1 (FIG. 1B).

Experiment [2] concerns basal breast cancer cells. Kind of experiment: Proliferation of basal breast cancer cells. Type of experiment: cell-based. On the procedure:
as §1
With the identification of a selective MELK inhibitor, we next tested if THZ-4-63-1 is an effective agent for those cancer cells. […] The high potency of THZ-4-63-1 not only confirm the previous identification of MELK as an essential kinase for breast cancer, but also poise the compound itself for immediate translational implications.

“Also recorded” adds a separate entry of the source.

In the case of `CN(C)Cc1ccc(-n2c(=O)ccc3cnc4ccc(-c5cc(Cl)c(O)c(Cl)c5)cc4c32)cc1` [THZ-4-63-1], the “Cells undergoing mitotic slippage” value with U2OS-(H2B-GFP) cells is recorded as “nearly half”. For the same compound, the “Protein amount of mitotic factors (Cyclin B1, MELK, Aurora B)” value in experiment [1] is recorded as “efficiently reduced the protein amount of these mitotic factors”. The “Electrophoretic mobility of mitotic MELK” value on MELK is listed as “increases the electrophoretic mobility of mitotic MELK; also recorded: readily altered the mobility shift in a dose-dependent manner”. Also, the “Selectivity for MELK over NUAK1” value on NUAK1 is “preferentially targets MELK”. For the same compound, the half-inhibitory concentration (IC50) in experiment [2] (168 h, treated one week) is roughly 50 nM. In addition, in experiment [2] (basal breast cancer cells), the “Cell death at low nanomolar dose” value was “nearly complete cell death”.
